From patent US20250066328A1, “PARP7 INHIBITORS” (Gilead Sciences, Inc., priority 2023, published 2025) come the findings set out here.

The EC50 is the concentration giving half of the maximal effect.

This assay deals with STAT1 (phosphorylated at Tyr701) in NCI-H1373 cells. The assay is described as follows: Phospho-STAT1 (Tyr701) LANCE Ultra TR-FRET detection assay in NCI-H1373 cells. The class given is cell-based. The note with it: Homo sapiens, NCI-H1373, 48 h, 48 hours incubation, induction of pSTAT1, normalized to 10 uM positive control and DMSO, 4-parameter fit, read-out: NH1373 pSTAT1 EC50. In outline: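 NCI-H1373 cells (30,000/well) incubated 48 h at 37° C on compound, then lysed; phospho-STAT1 Tyr701 measured by sandwich TR-FRET (665/620 nm ratio). Data normalized to DMSO and a 10 uM reference inducer; EC50 from 4-parameter fit.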
(In general: TR-FRET usually uses a lanthanide donor and a delayed reading to cut background.)
Take `CC(C)(O)c1cnc(-c2cc3ccn(C[C@H](F)C[C@H](COC(F)F)Oc4cn[nH]c(=O)c4C(F)(F)F)c(=O)c3cc2F)nc1` [Example 122]: the EC50 was determined as 1.97 nM.
Turning to `CC(C)(O)c1cnc(-c2cc3ccn(CCCC(COC(F)F)Oc4cn[nH]c(=O)c4C(F)(F)F)c(=O)c3cc2F)nc1` (stereo not shown) [Example 33, 2-(5-(difluoromethoxy)-4-((6-oxo-5-(trifluoromethyl)-1,6-dihydropyridazin-4-yl)oxy)pentyl)-7-fluoro-6-(5-(2-hydroxypropan-2-yl)pyrimidin-2-yl)isoquinolin-1(2H)-one], the EC50 came out at 23.3 nM.
The result for `C[C@@H](C[C@@H](F)Cn1ccc2cc(-c3ncc(C(F)(F)F)cn3)c(F)c(F)c2c1=O)Nc1cn[nH]c(=O)c1C(F)(F)F` [Example 32] reads 0.912 nM; that for `COc1cnc(-c2cc3ccn(C[C@H](F)C[C@H](C)Nc4cn[nH]c(=O)c4C(F)(F)F)c(=O)c3cc2F)nc1` (single isomer, unassigned) [Example 6], 0.809 nM.
For the molecule `O=c1[nH]ncc(NC(COC(F)F)CC(F)Cn2ccc3cc(-c4ncc(C(F)F)cn4)c(F)cc3c2=O)c1C(F)(F)F` (stereo not shown) [Example 130], the EC50 came out at 2.24 nM.
With `C[C@@H](C[C@@H](F)Cn1ccc2cc(-c3ncc(Cl)cn3)c(F)c(F)c2c1=O)Oc1cn[nH]c(=O)c1C(F)(F)F` (single isomer, unassigned) [Example 43], the EC50 came out at 0.62 nM.
For `C[C@@H](C[C@@H](F)Cn1ccc2cc(-c3ncc([C@@H](F)CF)cn3)c(F)cc2c1=O)Nc1cn[nH]c(=O)c1C(F)(F)F` [Example 92], the EC50 amounted to 1.89 nM.
